Key:
[1] = Determination of cmc / cmceff by electrical conductivity; format: physicochemical; conditions: H2O, 25° C.; for cmc of pure surfactant (cmceff at 0 mM AgNO3): no AgNO3
Procedure: Electrical conductivity measurements (mS cm^−1) were performed on five SDS solutions over a range of concentrations, with each solution containing a different amount of added AgNO3. […] Standard deviations for each data point are <0.014 mS cm^−1 in all cases. Closed symbols represent the data points used for the linear regression analysis below the cmc, and the open symbols for the analysis above the cmc. For each sample, regardless of the electrolyte content, as the SDS concentration was varied, an inflection point in the electrical conductivity was observed, indicating the cmc. A linear regression analysis of the conductivity data of each of the five samples was performed above and below the inflection point. In all cases, no significant deviations from linearity were observed over the concentration ranges. A dashed line has been added to one data set to indicate the point of intersection of the two corresponding linear equations, thus indicating the cmc. The cmc of pure SDS in H2O in the absence of AgNO3 was determined to be 8.1 mM. The curve represents a critical ‘cmc boundary’ for the SDS/AgNO3 system, i.e. the cmceff of SDS at a given AgNO3 concentration between 0-10 mM.
Following the procedure detailed in Example 1, electrical conductivity measurements were performed on sodium dodecylbenzenesulfonate (SDBS), sodium lauryl ether sulfate (SLES) and ammonium lauryl sulfate (ALS) solutions containing different amounts of added AgNO3 in order to determine the cmceff of each surfactant. […] Linear regression analysis was performed as described in Example 1. The cmc of pure SDBS, SLES and ALS at 25° C. was determined to be 1.4, 3.1 and 6.7 mM, respectively.

[2] = absence of any salts; cited from earlier work

Row | Compound | Cmceff ([1]; [AgNO3] 0.6 mM) [mM] | cmc of pure surfactant (cmceff at 0 mM AgNO3) [1] [mM] | cmc of pure SDS in water (known) [2] [mM] | Cmceff ([1]; [AgNO3] 2.9 mM) [mM]
1 | CCCCCCCCCCCCOS(=O)(=O)O.N [ALS, ammonium lauryl sulfate] | 4.6 | 6.7 |  | 
2 | CCCCCCCCCCCCOS(=O)(=O)[O-].[Na+] [SDS, sodium dodecyl sulfate] |  | 8.1 | 8.0 to 8.3 | 
3 | sodium lauryl ether sulfate [SLES] | 2.1 | 3.1 |  | 1.9

Source: US10064891B2, “Assembly of micelle aggregates of surfactant micelles and silver nanoparticles and use as antibacterial agent” (Otago Innovation Limited, priority 2013, dated 2018)
